A short description of the series: gradient 5% acetonitrile 3 min, to 50% in 2 min, to 85% in 15 min, held 3 min, 100 µL/min. To be noted: column: Zorbax Extend-C18 2.1 x 50 mm; eluents: water / acetonitrile, 0.1% formic acid. The gist of the method:
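The mobile phases were water and acetonitrile, each with 0.1% formic acid, pumped at 100 μL/min through a Zorbax Extend-C18 column (2.1 × 50 mm, 1.8 μm). Pure standards were injected as mixtures of ~100 molecules and detected by a quadrupole time-of-flight mass spectrometer in positive and negative ionization mode. Retention time came from computationally picked adduct peaks, each inspected by hand.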
Turning to `Cc1ccc(NC(=O)C2CCCN(S(=O)(=O)c3c[nH]c(C(=O)N4CCCCCC4)c3)C2)cc1` (centres undefined), the RP-LC retention time came out at 926 s. In the case of `COc1ccccc1CNC(=O)Cn1cncc(C)c1=O` it was 618 s; in that of `Cc1noc(-c2cccc(OC3CN(C(=O)C4CCOC4)C3)c2)n1` (centres undefined), 694 s; in that of `O=C(Nc1ccc(OCC(=O)N2CCN(c3ccccc3)CC2)nc1)C1CC1`, 730 s.

Regarding `COc1ccc(-c2cc(C(=O)Nc3ccc(F)cc3)nn2C2CCS(=O)(=O)C2)cc1` (centres undefined), the RP-LC retention time was found to be 930 s. The figure for `COc1ccc(C(=O)NCCc2sc(-c3cccnc3)nc2C)cc1` is 619 s. The molecule `Cc1ccc2c(C(=O)NCCc3cccnc3)cc(NC(=O)C(C)C)cc2n1` gave an RP-LC retention time of 550 s. In the case of `CCn1cc(CC(=O)NCc2cccc(F)c2)c2cccnc21` it was 716 s; in that of `CCc1ccc(NC(=O)C2CCCN(c3nc4c(s3)c(C)nn4-c3ccc(OC)cc3)C2)cc1` (centres undefined), 1360 s; in that of `CCC1CN2C=Nc3oc(C)c(C(=O)Nc4cccc(C(F)(F)F)c4)c3C2=N1` (centres undefined), 719 s. With `CC(C)c1noc(-c2ccnc(-n3cnc(C(=O)NC4CCCCC4)c3)c2)n1`, the RP-LC retention time is 1020 s. The figure for `O=S(=O)(c1cccn2c(SCc3ccc(F)cc3)nnc12)N1CCCC1` is 829 s. The figure for `Cc1cccc(C)c1-n1ccn(Cc2nc(-c3ccccn3)no2)c(=O)c1=O` is 695 s; for `Cc1ccccc1C(C(=O)NC1CCCCC1)N(C(=O)Cn1ccnc1C)c1cccc(F)c1` (centres undefined) it is 895 s. For `Cn1nc2ccc(S(=O)(=O)N3CCSCC3)cn2c1=O`, the RP-LC retention time turned out to be 687 s.

`O=C(c1cc2ccccc2[nH]1)N1CCN(c2cc(-c3cccs3)[nH]n2)CC1` returned an RP-LC retention time of 832 s. In the case of `CCc1ccc(NC(=O)CN2C(=O)NC3(CCCCC3)C2=O)cc1` it was 765 s. In the case of `O=C(NC1CCCC1)C1CCCN(c2ccc3cc(S(=O)(=O)N4CCCCC4)ccc3n2)C1` (centres undefined) it was 781 s; in that of `Cc1c(C(=O)N2CCSCC2)cnn1-c1cc(-c2nc(C(C)C)no2)ccn1`, 974 s; in that of `O=C(c1cn2c(n1)CCCC2)N1CCN(c2ccc(Cl)cc2)CC1`, 648 s. The molecule `CCC(Sc1nnc2n1CCN2c1ccc(OC)cc1)C(=O)OC` (centres undefined) had an RP-LC retention time of 735 s. For `COc1ccc(C(C)NC(=O)c2cnn3c(-c4ccc5c(c4)OCO5)ccnc23)cc1OC` (centres undefined), the RP-LC retention time was found to be 875 s. In the case of `CCCCNC(=O)C1CCCN(c2nnc(C)c3c(C)n(-c4ccc(Cl)cc4)nc23)C1` (centres undefined) it was 746 s. The figure for `O=C(C1CCN(c2cn[nH]c(=O)c2)C1)N1CCCC1` (centres undefined) is 571 s; for `COc1ccc(S(=O)(=O)N2CCN(c3ccccn3)CC2)cc1OC` it is 588 s; for `CCN1c2cc(F)ccc2C(=O)NC12CCN(C(=O)c1ccc(F)cc1)CC2` it is 714 s.

For the molecule `Cc1ccc(-n2nc3c(=O)n(C(C)C(=O)NC4CC4)nc(C)c3c2C)cc1` (centres undefined), the RP-LC retention time turned out to be 744 s.

`Cc1cnc(C(=O)N2CC[C@H](n3c(=O)n(C)c4cccnc43)C2)cn1` gave an RP-LC retention time of 647 s. In the case of `Cn1cnc2ccc(-c3noc(CNS(=O)(=O)c4ccccc4)n3)cc21` it was 739 s. In the case of `CN1C(=O)c2cc(S(=O)(=O)Nc3ccc(Cl)cc3)ccc2Oc2cccnc21` it was 950 s; in that of `O=C(NCCOc1ccc2c(c1)OCO2)C1CCCC1`, 741 s. On to `CCOC(=O)C1CCCN(C(=O)Cn2ccc3ccc(-c4nnc(C)o4)cc32)C1` (centres undefined), for which the RP-LC retention time turned out to be 785 s. Turning to `CCC(=O)N1CCc2cc(C(=O)NC)ccc21`, the RP-LC retention time was 626 s. In turn, `COc1cccc(F)c1-c1nc(C)c(C(=O)Nc2nc3ccccc3[nH]2)s1` yielded an RP-LC retention time of 779 s. In turn, `CCCC(=O)N1CCN(c2ccc(=O)n(-c3ccc(Cl)cc3)n2)CC1` returned an RP-LC retention time of 778 s.

In turn, `COc1ccc(NC(=O)c2cnc(N3CCC4(CC3)OCCO4)nc2N)cc1` returned an RP-LC retention time of 635 s. `O=C(c1nnn(Cc2ccc(Cl)cc2)c1-n1cccc1)N1CCCC1` came in with an RP-LC retention time of 915 s. Molecule `CN(Cc1cccnc1)C(=O)C12CCC=C1N(C1CCCC1)C(=O)CC2` (centres undefined) showed an RP-LC retention time of 577 s. In the case of `Cc1cc(C)c2c(-n3cccc3)nn(CC(=O)NCCN(C)C)c2n1` it was 630 s; in that of `CCOC(=O)Cn1c(C2CC(=O)N(Cc3ccccc3)C2)nc2ccccc21` (centres undefined), 749 s. The figure for `CC(C)CCN1CC(=O)N2Cc3[nH]c4ccccc4c3C[C@H]2C1=O` is 825 s; for `CCc1ccc(NC(=O)N2CCc3[nH]cnc3C2c2ccncc2)cc1` (centres undefined) it is 581 s. For `O=C1CC(c2nc(-c3ccccc3Cl)no2)CN1c1ccc2c(c1)OCO2` (centres undefined), the RP-LC retention time stood at 933 s. In the case of `Cc1cccc(-c2nnc(-c3cc(S(=O)(=O)N4CCOCC4)ccc3Cl)o2)c1` it was 992 s; in that of `CC(=O)OCC(=O)[C@@]1(O)CCC2C3CCC4=CC(=O)CC[C@]4(C)C3=CC[C@@]21C` (some centres undefined), 776 s; in that of `COc1cc(NC(=O)N2CCc3cn(C)c4cccc(c34)C2)cc(OC)c1`, 713 s. Take `COc1cc(OC)c(NC(=O)N2CCC(n3cnc4cccnc43)CC2)cc1Cl`: the RP-LC retention time stood at 670 s. Molecule `Cn1c(C2CCN(S(=O)(=O)c3ccc(Cl)cc3)C2)nc2cccnc21` (centres undefined) gave an RP-LC retention time of 760 s. The figure for `COc1ccc(NC(=O)Cn2cc(C(=O)N3CCCC3)c(=O)c3ccc(C)nc32)cc1` is 667 s; for `Cc1ccc(NC(=O)C2CCCN(c3ccc4cc(S(=O)(=O)N5CCCC5)ccc4n3)C2)cc1C` (centres undefined) it is 870 s. `Cc1nn(C(C)C(=O)Nc2ccc(Cl)cc2)c(=O)c2c(-n3cccc3)n(-c3ccccc3)nc12` (centres undefined): the RP-LC retention time was 1160 s. `CCOC(=O)c1nc(N2CCN(c3ccc(C)cc3C)CC2)c2ccccc2n1` displayed an RP-LC retention time of 1110 s. As to `CCc1nc2cc(N3CCC(C(=O)NCCN4CCCCCC4)CC3)cnc2nc1CC`, the RP-LC retention time came to 613 s. As for `CC(CCc1ccccc1)NC(=O)c1cc2sc(Cl)cc2n1C` (centres undefined), the RP-LC retention time amounted to 1170 s. The figure for `O=C(c1cccc(Cl)c1)N1CCC(n2c(-c3ccco3)nc3cccnc32)C1` (centres undefined) is 776 s.

`COc1cccc(C(=O)N2CCN(c3ccc(=O)n(-c4ccc(Cl)cc4)n3)CC2)c1` displayed an RP-LC retention time of 853 s. `Cc1nc(-n2cccc2)sc1C(=O)NCCN(C)C`: the RP-LC retention time is 547 s. As for `COc1ccc(OCc2nc(-c3ccc(-c4csc(C)n4)cc3)no2)cc1`, the RP-LC retention time was 1170 s.

With `O=C(Nc1ccc(F)cc1Br)c1cnc(-c2ccccc2)nc1-c1ccncc1`, the RP-LC retention time is 935 s. Turning to `COCC1CN(S(=O)(=O)Cc2ccc(C)c(C)c2)CC12CCNCC2` (centres undefined), the RP-LC retention time worked out at 654 s. The figure for `O=C(NCC(=O)N1CCCc2ccccc21)c1ccccc1Br` is 822 s. For `O=C(NCCCc1ccccc1)C1CCN(C(=O)c2ncn3c2COC(c2ccc(F)cc2)C3)CC1` (centres undefined), the RP-LC retention time is 818 s. Take `CCc1noc(NC(C)=O)c1-c1ccc(OC)c(S(=O)(=O)Nc2cccc(C(F)(F)F)c2)c1`: the RP-LC retention time is 862 s. The figure for `CCOc1ccc(NC(=O)C2CCCN2S(=O)(=O)c2cc3c(cc2C)NC(=O)CO3)cc1` (centres undefined) is 770 s. The figure for `COc1ccccc1-c1noc(C2CCCN2C(=O)c2n[nH]c3ccccc23)n1` (centres undefined) is 829 s. Turning to `CC(=O)N1CCCCCCNC(=O)[C@@H]2CCC[C@@H]21`, the RP-LC retention time came out at 624 s.

On to `Cc1cc(=O)n(CC(=O)Nc2ccc3c(c2)OCCO3)c(N)n1`, for which the RP-LC retention time was determined as 542 s.

Regarding `CCC(C)(C)C(=O)O[C@H]1C[C@@H](C)C=C2C=C[C@H](C)[C@H](CC[C@@H](O)C[C@@H](O)CC(=O)O)[C@H]21`, the RP-LC retention time was found to be 1020 s. Consider `Cc1nc(-c2cc(S(=O)(=O)NCCN3CCC(C)CC3)c(C)s2)sc1C`, for which the RP-LC retention time is 718 s. Turning to `c1cc(N2CCCCC2)ncc1-c1noc(CN2CCC3(CC2)OCCO3)n1`, the RP-LC retention time was 637 s. `COc1ccccc1NC(=O)C1=C(C)NC(=O)NC1c1cccs1` (centres undefined) registered an RP-LC retention time of 665 s. On to `CCOc1ccc(S(=O)(=O)N2CCCC(C(=O)NCc3cccnc3)C2)cc1C` (centres undefined), for which the RP-LC retention time turned out to be 685 s. In the case of `Cc1nccn1-c1ccc(=O)n(CCNC(=O)Cn2nc(-c3ccc(F)cc3)ccc2=O)n1` it was 780 s; in that of `COc1ccc(C(=O)N2CCC3(CC2)NC(=O)c2ccc(Cl)cc2N3)cc1`, 735 s; in that of `COc1ccc(C2C(C(=O)N3CCCCC3)=C(C)NC3=C2C(=O)CC(C)(C)C3)cc1OC` (centres undefined), 675 s.

`CCn1c(=O)c2cc(C(=O)Nc3cccc(C(F)(F)F)c3)nn2c2ccccc21` yielded an RP-LC retention time of 1080 s. The figure for `COc1ccc(S(=O)(=O)N2CCN(c3ccc(Nc4ccccn4)nn3)CC2)cc1C` is 603 s; for `NC(=O)c1ccsc1NC(=O)c1ccc(S(=O)(=O)N2CCc3ccccc3C2)cc1` it is 877 s; for `COc1ccc(C(=O)N2CCc3ccc(C(=O)NCc4ccco4)cc32)cc1` it is 795 s.

Values taken from the METLIN SMRT retention time set (Domingo-Almenara et al. 2019).
